Source: patent publication US20260283206A1, “SWEETENER COMPOSITIONS” (CARGILL, INCORPORATED, priority 2023, published 2026)
Entries after “also recorded” stand apart in the source; their conditions may differ.

Assay: Sensory panel assay of aqueous steviol glycoside solutions (roundtable consensus, descriptive analysis)
Assay type: in vivo
Conditions: 500 ppm in reverse osmosis water, panel of four; for Sensory Attribute Comments - Off-tastes (bitterness, metallic taste) / Sensory Attribute Comments - Sweetness (intensity / profile): compared against Reb A and Reb D/M
Procedure: Assays were carried out to characterize the sensory attributes, e.g., sweetness profile, of aqueous solutions of samples. Sensory attributes of the compositions were tested by a panel of individuals that are experienced in sensory testing. The experienced panelists assessed sensory attributes such as, but not limited to, bitterness, metallic notes, mouth drying, sweetness intensity, and sweetness linger. The panelists compared the sweeteners against Reb A and Reb D/M. To test each composition, the experienced panelists dispensed approximately 2-4 fl oz of each sample or solution into their own mouths, dispersed the solution by moving their tongues, and individually recorded a sensory attribute scale value. Between tasting solutions, the panelists were able to cleanse their palates with water and/or rice crackers.
Assays were carried out to characterize the sensory attributes of aqueous solutions. Sensory attributes were analyzed by a panel of four individuals using a roundtable consensus approach. All panelists used the assay method described above. The panelists provided a descriptive analysis of the samples. The sensory attributes of Reb A and Reb D/M are known, and thus Reb A and Reb D/M were used as comparative samples. The sweetness profile of Reb A is described in the art, for example in DuBois et al. (“Concentration—Repose Relationship of Sweeteners,” Sweeteners: Discovery, Molecular Design, and Chemoreception, Chapter 20, pages 261-276, American Chemical Society 1991).

Structure (SMILES) | Sensory Attribute Comments - Off-tastes (bitterness, metallic taste) | Sensory Attribute Comments - Sweetness onset and rise | Sensory Attribute Comments - Sweetness (intensity / profile)
C=C1C[C@@]23CC[C@H]4[C@@](C)(CCC[C@@]4(C)C(=O)O[C@@H]4O[C@H](CO)[C@@H](O)[C@H](O)[C@H]4O[C@@H]4O[C@H](CO)[C@@H](O)[C@H](O)[C@H]4O)[C@@H]2CC[C@]1(O[C@@H]1O[C@H](CO)[C@@H](O)[C@H](O[C@@H]2O[C@H](CO)[C@@H](O)[C@H](O)[C@H]2O)[C@H]1O[C@@H]1OC[C@@H](C)[C@H](O)[C@H]1O)C3 [Sample 1, rebaudioside EM] | Off-tastes: Less bitter than Reb A. |  | 
C=C1CC23CCC4C(C)(C(=O)OC5OC(CO)C(O)C(OC6OC(CO)C(O)C(O)C6O)C5OC5OCC(O)C(O)C5O)CCCC4(C)C2CCC1(OC1OC(CO)C(O)C(OC2OC(CO)C(O)C(O)C2O)C1OC1OC(CO)C(O)C(O)C1O)C3 (stereo not drawn) [Sample 2, rebaudioside V2] | Off-tastes: Very faint bitterness. Quite clean sweetness. | (Reb D/M). Slight delay in onset (less delay than Sample; also recorded: very rapid rise | Sweetness: Higher peak sweetness than Sample 5
C=C1C[C@@]23CC[C@H]4[C@@](C)(CCC[C@@]4(C)C(=O)O[C@@H]4O[C@H](CO)[C@@H](O)[C@H](O)[C@H]4O)[C@@H]2CC[C@]1(O[C@@H]1O[C@H](CO)[C@@H](O)[C@H](O[C@@H]2O[C@H](CO)[C@@H](O)[C@H](O)[C@H]2O)[C@H]1O[C@@H]1O[C@H](CO)[C@@H](O)[C@H](O)[C@H]1O)C3 [Sample 3, rebaudioside A, reference compound] | Off-tastes: Typical Reb A bitterness, metallic taste. |  | Sweetness: Sweetness profile typical of Reb A.
